Experimental data taken from article PMC4336331, “Novel Receptor-Derived Cyclopeptides to Treat Heart Failure Caused by Anti-β1-Adrenoceptor Antibodies in a Human-Analogous Rat Model” (PLoS ONE, 2015).
Peptide text beside a SMILES is read from it.

System: anti-β1EC2-antibodies
Experiment: Free anti-β1EC2-titers by ELISA, prevention-study
Format: in vivo, Lewis/CrlBR rats
Conditions: 1.0 mg/kg i.v. monthly
Method: For treatment groups (a), (b), and (f) in total n = 38 non-immunised rats were injected with 0.9% NaCl and treated in parallel (“negative” controls). Blood was taken at regular intervals; rat-IgG was prepared by caprylic acid precipitation and assayed for reactivity by ELISA or competition-ELISA against linear peptides corresponding to the human β1EC2-sequence (AA199-223)[12], and by immuno-fluorescence microscopy with human embryonic kidney (HEK)293 cells stably expressing 0.4 pmol β1-AR/mg membrane protein (HEKβ1-cells). Specificity of the anti-β1EC2-abs was confirmed by co-localisation experiments using previously characterised N-terminal rabbit anti-β1-abs. Bound antibodies were detected with appropriate species-specific secondary antibodies (Dianova, Hamburg, Germany; anti-rabbit-, or anti-rat-Fab2, conjugated to Cy2 or Cy3). Calibrated rat-IgG (Dianova) served to quantify specific IgG-antibodies.
Fig 2 Study protocol and cardioprotection with cyclic β1EC2-peptides. Flow charts of the (A) prevention- and (E) therapy-study with β1EC2-mimicking peptides in the rat. Numbers given refer to animal-numbers in the respective study-groups. Immunisation with β1EC2/GST-FP (or 0.9% NaCl for controls) was started at t = 0. […] Titers were measured before and 24h after CP-injection. […] For better readability error-bars are not shown in the graph. […]

## CC(C)[C@@H]1NC(=O)[C@H](Cc2ccccc2)NC(=O)[C@H](CC(=O)O)NC(=O)[C@H](CS)NC(=O)[C@H](CS)NC(=O)[C@H](CCCCN)NC(=O)[C@@H]2CCCN2C(=O)[C@H](CC(=O)O)NC(=O)[C@H](CC(N)=O)NC(=O)[C@H](Cc2ccc(O)cc2)NC(=O)[C@H](CS)NC(=O)[C@H](CCCNC(=N)N)NC(=O)[C@H](CCCNC(=N)N)NC(=O)[C@H](C)NC(=O)[C@H](CCC(=O)O)NC(=O)[C@H](CC(=O)O)NC(=O)[C@H](CO)NC(=O)[C@H](CCC(=O)O)NC(=O)[C@H](C)NC(=O)[C@H](CCCNC(=N)N)NC(=O)[C@H](C)NC(=O)[C@H](CCC(N)=O)NC(=O)CNC(=O)[C@H](CCCNC(=N)N)NC(=O)[C@H](CC(N)=O)NC(=O)[C@H]([C@@H](C)O)NC1=O [β1EC2-CP] (cyclo(AESDEARRCYNDPKCCDFVTNRGQAR))
After 5 injections, ELISA (Fig. 2B)
  reduction in free anti-β1EC2-abs vs. initial values: > 80%
After 9–10 injections, despite monthly antigen-boosts (Fig. 2B)
  anti-β1EC2-titers in % of the initial values: ~10%
